Measured values from US20080318876A1, “Use of Ginsenosides in the Treatment of Aids” (priority 2004, published 2008).
Where two headings read alike, the source gives them in different places.

Assays:
[1] = system: HIV-1 in Hela-CD4 cells; assay: Combination medication JHR and AZT (MAGI test); format: cell-based
Method: Method: For the experiment, the MAGI test method was adopted (the same as above).
(A) Single-agent medication: five doses of AZT were used in amount of from 1 μM to 3.9 nM, and were designated AZT1-5, five doses of JHR were designated in amount of 400 ug/ml to 1.56 ug/ml, and IC50 were obtained respectively.
Half dosage of AZT was combined with half dosage of JHR-1 as one sample. AZT1 was combined respectively with any of JHR1-JHR5; Each of AZT2, AZT3, AZT4, AZT5 was respectively combined with any of […]. So a total of 25 concentration combinations could be used. Each concentration was set in duplicate wells (2 wells). Additional group was taken as cell and virus controls.
(C) Comparing each drug combination with the virus group to have the inhibition rate. The inhibition rate of each drug combination was compared with the sole AZT IC50 to obtain the difference of functions each other.

[2] = system: HIV single life cycle model; assay: Viral life cycle stage targeted: dosing at different times post-infection (single life cycle model, MAGI or Luciferase); format: cell-based
[3] = biological target: gp41 protein (Human immunodeficiency virus type 1 group M subtype B, UniProt P03375); assay: BIACORE binding to gp41 protein; conditions: BIACORE chip, genetically recombined gp41; conjugation to gp41 stronger than to gp120
Source text: The genetically recombined gp41, gp120 were placed on the chip of BIACORE analyzer, respectively, after adding a certain concentration of Rb3 in sufficient amount, the instrument could detect whether or not there was a binding.

[4] = system: HIV-1 (single-life-cycle reporter HIV) in Hela-CD4-LTR-gal cells; assay: Inhibition of HIV-1 replication in HeLa-CD4 cells (MAGI test); format: cell-based; conditions: for inhibition at 200 µg/mL: Human immunodeficiency virus 1, MAGI, read-out: Inhibition Rate (0.2 mg/ml)
Method: Three types of cells (such as MT4, Hela-CD4, PBMC) were infected respectively with HIV-1 virus for observation of the inhibiting effects of ginseng composition (JHR) prepared in Example 1 upon the HIV-1 replication.
Virus: Single-life-cycle reporter HIV was acquired by transfection with HIV plasmids.
Method: Hela-CD4-LTR-gal cell was inoculated into a 24-well plate at 0.4×10^5/well and cultured for 24 hours and let the cells absorb and adhere to the wall. On the second day, the supernatants were sucked away from the wells and 100 μl drug (drug control) or drug (drug solutions with different concentrations) and HIV-1 or culture medium (Mock) were added. After 2 hours, 200 μl of identical drug solutions or culture medium was added into each well for culturing at 37° C. in a CO2 incubator for 48 hours and detecting by the following method.
Fixation: The supernatants were sucked away from each well and adding the fixative solution (1 ml), and then by staining with K4[Fe(CN)6].3H2O, K3[Fe(CN)6] and X-gel.
Counting: For the blue cell counts (BCC) within each well, the following formula is used to calculate the IR and then IC50.
The same method as that in example 1 is applied, except that the drug added into the wells is Ginsenoside monomer, and the concentration thereof is listed in table 3.

[5] = biological target: T1, gp120 protein (Human immunodeficiency virus type 1 group M subtype B, UniProt P03375); format: binding; conditions: BIACORE chip, genetically recombined gp120
T1 construct: The genetically recombined gp41, gp120 were placed on the chip of BIACORE analyzer

## Cc1cn([C@H]2C[C@H](N=[N+]=[N-])[C@@H](CO)O2)c(=O)[nH]c1=O [AZT]
[1]; AZT alone or AZT combined with JHR dose 1-5, MAGI test, read-out: ED50 (the source's name)
  EC50: 46 nM
[1]; AZT alone, read-out: IC50 of AZT alone
  IC50: 46 nM
[1]; combined with the first dose of JHR, read-out: IC50 of AZT after combining with the first dose of JHR
  IC50: 5.8 nM

## CC(C)=CCC[C@](C)(O[C@@H]1O[C@H](CO[C@@H]2OC[C@@H](O)[C@H](O)[C@H]2O)[C@@H](O)[C@H](O)[C@H]1O)[C@H]1CC[C@]2(C)[C@@H]1[C@H](O)C[C@@H]1[C@@]3(C)CC[C@H](O[C@@H]4O[C@H](CO)[C@@H](O)[C@H](O)[C@H]4O[C@@H]4O[C@H](CO)[C@@H](O)[C@H](O)[C@H]4O)C(C)(C)[C@@H]3CC[C@]12C [Rb3]
[2]; dosing 2 hours post-infection
  Inhibition rate (%): 83.98%
[2]; dosing 10 hours post-infection
  Inhibition rate (%): 0%
[2]; dosing 29 hours post-infection
  Inhibition rate (%): 0%
[3]
  binding to gp41 protein: can bind
[4]; Hela-CD4 cell strain, 0.2 mg/ml
  Inhibition Rate (0.2 mg/ml): 70.68%
[4]; Hela-CD4 cell strain, 0.4 mg/ml
  Inhibition Rate (0.4 mg/ml): 97.9%
[5]
  binding to gp120 protein: can bind

## CC(C)=CCC[C@](C)(OC1OC(COC2OC(CO)C(O)C(O)C2O)C(O)C(O)C1O)[C@H]1CC[C@]2(C)[C@@H]1[C@H](O)C[C@@H]1[C@@]3(C)CC[C@H](OC4OC(CO)C(O)C(O)C4OC4OC(CO)C(O)C(O)C4O)C(C)(C)[C@@H]3CC[C@]12C (stereo partly shown) [Rb1]
[4]
  inhibition at 200 µg/mL: 41.9%

## CC(C)=CCC[C@](C)(OC1OC(COC2OC(CO)C(O)C2O)C(O)C(O)C1O)[C@H]1CC[C@]2(C)[C@@H]1[C@H](O)C[C@@H]1[C@@]3(C)CC[C@H](OC4OC(CO)C(O)C(O)C4OC4OC(CO)C(O)C(O)C4O)C(C)(C)[C@@H]3CC[C@]12C (stereo partly shown) [Rc]
[4]
  inhibition at 200 µg/mL: 60.7%

## CC(C)=CCC[C@](C)(OC1OC(COC2OCC(O)C(O)C2O)C(O)C(O)C1O)[C@H]1CC[C@]2(C)[C@@H]1[C@H](O)C[C@@H]1[C@@]3(C)CC[C@H](OC4OC(CO)C(O)C(O)C4OC4OC(CO)C(O)C(O)C4O)C(C)(C)[C@@H]3CC[C@]12C (stereo partly shown) [Rb2]
[4]
  inhibition at 200 µg/mL: 42.9%
